Assay results: ChEMBL document CHEMBL1681728, “An automated, polymer-assisted strategy for the preparation of urea and thiourea derivatives of 15-membered azalides as potential antimalarial chemotherapeutics” (Bioorg Med Chem, 2011)

How the values were obtained:
Assay type in all cases: functional, organism-based
Plasmodium falciparum [1] = assay: Antimalarial activity against chloroquine-sensitive Plasmodium falciparum D6 assessed as inhibition of [3H]hypoxanthine incorporation after 96 hrs by microtiter plate scintillation counting
Plasmodium falciparum [2] = assay: Antimalarial activity against chloroquine-,pyrimethamine-resistant Plasmodium falciparum W2 assessed as inhibition of [3H]hypoxanthine incorporation after 96 hrs by microtiter plate scintillation counting
Plasmodium falciparum [3] = assay: Antimalarial activity against multidrug-resistant Plasmodium falciparum TM91C235 assessed as inhibition of [3H]hypoxanthine incorporation after 96 hrs by microtiter plate scintillation counting

`CC[C@H]1OC(=O)[C@H](C)[C@@H](O[C@H]2C[C@@](C)(OC)[C@@H](O)[C@H](C)O2)[C@H](C)[C@@H](O[C@@H]2O[C@H](C)C[C@H](N(C)C)[C@H]2O)[C@](C)(O)C[C@@H](C)CN(CCCNC(=S)Nc2cc(Cl)cc(Cl)c2)[C@H](C)[C@@H](O)[C@]1(C)O` showed an IC50 (Plasmodium falciparum [1]) of 116 nM, an IC50 (Plasmodium falciparum [2]) of 42.5 nM and an IC50 (Plasmodium falciparum [3]) of 55.4 nM.
